# Laboratory results from patent US20100003217A1, “Compounds and Pharmaceutical Compositions for the Treatment of Viral Infections” (priority 2008, published 2010).
# Legend:
# [1] = Cytotoxicity (MTS assay), 184R-D2 cells; assay type: cell-based; conditions: human, 184R-D2 cells (S282T), 184R-D2 (S282T), N = 3
# Method: Cells were plated and treated with inhibitors as described above.
# GS4.1 cells = assay: Cytotoxicity of Compound 1 and RBV on GS4.1 cells using MTS assay (combination study); conditions: three days, 0.6× to 1.5× EC50, alone or in combination
# Method: The readout of the assay was measured by the bioreduction of the yellow MTS tetrazolium compound to a purple formazan product. This conversion is mediated by NADPH or NADH in metabolically active cells and is therefore directly proportional to the number of live cells in a culture. Plates were setup as described above.
# Cells were plated and treated with inhibitors using the drug matrix described above.
# After three days of drug treatment, 20 μL of MTS was added to each well, and then plates were incubated at 37° C./5% CO2.
# CYP3A4 = assay: Effect of CYP3A4 inhibitors (ketoconazole, ritonavir) on metabolic stability in monkey liver microsomes; assay type: in vitro ADME; conditions: monkey microsomes 0.5 mg/mL, 30 min, 10 μM, NADPH
# Method: Incubations were conducted in a final volume of 0.1 mL per incubation time point. […] Final solvent (DMSO or methanol) concentration was maintained at 0.2%. Reactions were initiated by the addition of an NADPH regenerating system (1.3 mM NADP^+, 3.3 mM glucose-6-phosphate, 0.4 U/ml glucose-6-phosphate dehydrogenase, and 3.3 mM MgCl2, final concentrations). Incubations with no inhibitor served as control. Reactions were terminated at 30 min (monkey) or 60 min (rat and human) by the addition of 0.2 mL of stop solution (acetonitrile). The samples were vortex-mixed for 30 sec and then centrifuged at 10,000×g for 10 min. The supernatant was dried using a Labconco CentriVap concentrator and the dry residue reconstituted in water, transferred to an HPLC glass vial and analyzed by HPLC-UV method 1 (described above).
# Because Compound 1 is rapidly metabolized in monkey liver microsomes, incubation conditions were adjusted by reducing protein content to 0.5 mg/mL and incubation time to 30 min. Incubation conditions for rat and human were unchanged; protein was 1 mg/mL and incubation time was 60 min.
# [2] = Total radioactivity in rat liver after [^14C]-Compound 1; assay type: in vivo, male Sprague-Dawley rats
# Method: Isotopically diluted [^14C]-Compound 1 was administered intravenously to male Sprague-Dawley rats at 50 mg/kg or by oral gavage at 100 mg/kg.
# Liver samples were collected at 2, 6 and 24 h postdose from the animals of both the IV and the PO dose groups. The samples were flash frozen after excision and kept on dry ice during homogenization. The homogenization was conducted on dry ice in 70% methanol-30% water containing 20 mM EDTA and 20 mM EGTA (about 1× (w/v) weight of the liver). Triplicate weighed aliquots (about 500 mg) were combusted in the Packard Sample Oxidizer and followed by LSC analysis to determine radioactivity […]). The average data for levels of total radioactivity in liver are summarized below.
# CYP2B6 = CYP2B6 (Homo sapiens, UniProt P20813); assay: Incubation with human recombinant CYP450 supersomes, 2B6; assay type: in vitro ADME; conditions: CYP450 2B6 supersomes, 60 min, 10 μM, average of two experiments
# Sequence of CYP2B6 (P20813 whole entry): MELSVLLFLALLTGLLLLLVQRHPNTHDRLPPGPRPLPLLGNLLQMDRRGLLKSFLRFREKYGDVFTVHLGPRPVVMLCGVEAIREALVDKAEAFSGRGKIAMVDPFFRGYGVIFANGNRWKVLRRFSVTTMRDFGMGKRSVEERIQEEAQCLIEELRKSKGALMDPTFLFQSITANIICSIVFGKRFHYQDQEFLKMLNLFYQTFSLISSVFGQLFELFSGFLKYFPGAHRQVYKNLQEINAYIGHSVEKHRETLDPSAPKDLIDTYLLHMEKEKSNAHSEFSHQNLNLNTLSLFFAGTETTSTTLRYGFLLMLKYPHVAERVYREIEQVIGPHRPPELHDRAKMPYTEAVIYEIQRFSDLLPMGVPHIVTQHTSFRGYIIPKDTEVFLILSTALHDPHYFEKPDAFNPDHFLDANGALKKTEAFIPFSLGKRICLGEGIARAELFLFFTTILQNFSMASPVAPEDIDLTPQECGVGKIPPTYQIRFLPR
# Method: (§1) Supersomes—Incubations were conducted in a final volume of 0.1 mL reaction buffer (50-100 mM potassium phosphate, pH 7.4 or 100 mM Tris-HCL, pH 7.4) according to protocol provided with each CYP450 supersome. Each reaction contained […] of CYP450 supersome, 1.3 mM NADP^+, 3.3 mM glucose-6-phosphate, 0.4 U/mL glucose-6-phosphate dehydrogenase, 3.3 mM MgCl2 and 10 μM Compound 1. Following incubation for 60 min at 37° C., 100 μL of stop solution (acetonitrile:methanol; 1:1) was added and samples centrifuged for 10 min at 10,000×g. The supernatant was then dried and reconstituted in 10 mM potassium phosphate, pH 5, further transferred to an HPLC glass vial and analyzed by HPLC-UV (described above).
# CYP2E1 = CYP2E1 (Homo sapiens, UniProt P05181); assay: Incubation with human recombinant CYP450 supersomes, 2E1; assay type: in vitro ADME; conditions: CYP450 2E1 supersomes, 60 min, 10 μM, average of two experiments
# Sequence of CYP2E1 (P05181 whole entry): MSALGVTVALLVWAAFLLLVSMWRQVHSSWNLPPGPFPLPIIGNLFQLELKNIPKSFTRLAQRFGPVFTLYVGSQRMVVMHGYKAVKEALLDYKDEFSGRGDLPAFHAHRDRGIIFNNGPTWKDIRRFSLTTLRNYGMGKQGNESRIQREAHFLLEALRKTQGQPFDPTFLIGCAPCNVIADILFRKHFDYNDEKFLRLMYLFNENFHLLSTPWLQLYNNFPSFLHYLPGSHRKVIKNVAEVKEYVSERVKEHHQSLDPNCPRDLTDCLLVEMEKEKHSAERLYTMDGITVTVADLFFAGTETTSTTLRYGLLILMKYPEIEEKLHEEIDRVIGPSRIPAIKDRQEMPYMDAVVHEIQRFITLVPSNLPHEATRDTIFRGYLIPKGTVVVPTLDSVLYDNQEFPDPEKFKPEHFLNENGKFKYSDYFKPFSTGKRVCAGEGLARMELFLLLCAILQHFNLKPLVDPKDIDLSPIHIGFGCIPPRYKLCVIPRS
# Method: as §1
# [3] = Metabolite profile in rat plasma; assay type: in vivo, male Sprague-Dawley rats; conditions: rat terminal plasma, IV (2, 6, 24 h) and PO (6 h)
# Method: Pooled terminal rat plasma samples were prepared for Group 1A, Group 1C, and Groups 2A-C. The pools were prepared by combining 1 mL of plasma from each of the four animals. Subsamples (2 mL each) of the pooled samples were transferred to 15-mL conical centrifuge tubes for extraction. To each subsample, 6 mL of methanol were added and each mixture was vortexed vigorously and then centrifuged at 5700×g for 15 minutes. The supernatant (extract 1) was transferred to a 15-mL tube. The pellets were further extracted with methanol (2 mL). Each sample was vortexed thoroughly to ensure mixing. The samples were centrifuged as described above. The supernatant (extract 2) was removed. The total volume of each extract was recorded. […] All extracts and reconstituted extracts were analyzed by LSC. Reconstituted extracts containing sufficient radioactivity were analyzed by HPLC.
# Terminal plasma samples were pooled, extracted and prepared for HPLC analysis as described above. For Group 1, terminal plasma samples (2, 6, and 24 h) were pooled and analyzed by HPLC as described above. For Group 2, only the 6-h sample had sufficient radioactivity for analysis. […]
# [4] = Group 1A: IV 50 mg/kg, 2 h postdose
# [5] = Group 1B: IV 50 mg/kg, 6 h postdose
# [6] = Group 1C: IV 50 mg/kg, 24 h postdose
# [7] = Group 2A: PO 100 mg/kg, 2 h postdose
# [8] = Group 2B: PO 100 mg/kg, 6 h postdose
# [9] = Group 2C: PO 100 mg/kg, 24 h postdose
compound,measurement,setting,value
"CC(C)(CO)C(=O)SCCOP(=O)(NCc1ccccc1)OC[C@H]1O[C@@H](n2cnc3c(=O)[nH]c(N)nc32)[C@](C)(O)[C@@H]1O (mixture of isomers) [Compound 1, 3-hydroxy-2,2-dimethyl-thiopropionic acid S-(2-{[(2R,3R,4R,5R)-5-(2-amino-6-oxo-1,6-dihydro-purin-9-yl)-3,4-dihydroxy-4-methyl-tetrahydro-furan-2-ylmethoxy]-benzylamino-phosphoryloxy}-ethyl) ester]",CC50 at 3 days,[1],> 100 µM
same,in vitro cytotoxicity (MTS),GS4.1 cells,no evidence of in vitro cytotoxicity
same,% Residual Compound 1,CYP3A4; Ketoconazole 0.1 μM,68%
same,% Residual Compound 1,CYP3A4; Ketoconazole 1 μM,125%
same,% Residual Compound 1,CYP3A4; Ritonavir 0.1 μM,41%
same,% Residual Compound 1,CYP3A4; Ritonavir 1 μM,122%
same,% Residual Compound 1,CYP3A4; inhibitor 0 μM,25%
same,Concentration of total radioactivity in liver as μg equivalents/gram,[2]; [4],206 ± 24 μg equivalents/gram
same,Total radioactivity in liver as % AD,[2]; [4],15.5 ± 0.7 % AD
same,Concentration of total radioactivity in liver as μg equivalents/gram,[2]; [5],137 ± 12 μg equivalents/gram
same,Total radioactivity in liver as % AD,[2]; [5],10.1 ± 1.0 % AD
same,Concentration of total radioactivity in liver as μg equivalents/gram,[2]; [6],23.2 ± 3.1 μg equivalents/gram
same,Total radioactivity in liver as % AD,[2]; [6],1.76 ± 0.11 % AD
same,Concentration of total radioactivity in liver as μg equivalents/gram,[2]; [7],5.09 ± 0.78 μg equivalents/gram
same,Total radioactivity in liver as % AD,[2]; [7],0.20 ± 0.04 % AD
same,Concentration of total radioactivity in liver as μg equivalents/gram,[2]; [8],10.3 ± 1.2 μg equivalents/gram
same,Total radioactivity in liver as % AD,[2]; [8],0.37 ± 0.05 % AD
same,Concentration of total radioactivity in liver as μg equivalents/gram,[2]; [9],4.08 ± 1.10 μg equivalents/gram
same,Total radioactivity in liver as % AD,[2]; [9],0.17 ± 0.03 % AD
same,"total radioactivity in liver, % of the administered dose","[2]; IV [^14C]Compound 1, 2 h",16%
same,"total radioactivity in liver, % of the administered dose","[2]; IV [^14C]Compound 1, 6 h",10%
same,"total radioactivity in liver, % of the administered dose","[2]; IV [^14C]Compound 1, 24 h",1.8%
same,total radioactivity in liver,"[2]; IV, 2 h",206 μg equivalents of Compound 1/g of liver
same,total radioactivity in liver,"[2]; IV, 6 h",137 μg equivalents of Compound 1/g of liver
same,total radioactivity in liver,"[2]; IV, 24 h",23 μg equivalents of Compound 1/g of liver
same,total radioactivity in liver,"[2]; oral administration, 2 h",5 μg equivalents of Compound 1/g of liver
same,"total radioactivity in liver, % of the dose","[2]; oral administration, 2 h",0.2%
same,total radioactivity in liver,"[2]; oral administration, 6 h",10 μg equivalents of Compound 1/g of liver
same,"total radioactivity in liver, % of the dose","[2]; oral administration, 6 h",0.4%
same,total radioactivity in liver,"[2]; oral administration, 24 h",4 μg equivalents of Compound 1/g of liver
same,"total radioactivity in liver, % of the dose","[2]; oral administration, 24 h",0.2%
same,% Residual Compound 1,CYP2B6,108%
same,% Residual Compound 1,CYP2E1,100%
"C[C@@]1(O)[C@H](O)[C@@H](CO)O[C@H]1n1cnc2c(=O)[nH]c(N)nc21 [2′-C-methyl guanosine, 9-(2-C-methyl-β-D-ribofuranosyl)guanine, reference compound]",Plasma metabolites detected,[3],only detectable metabolite
